Columns and labels:
Canis familiaris [1] = assay: Change in mean blood pressure (MBP) in dog 1 after oral administration after a period of 15 min; format: functional, Canis lupus familiaris
Canis familiaris [2] = assay: Change in mean blood pressure (MBP) in dog 1 after oral administration after a period of 240 min; format: functional, Canis lupus familiaris
Canis familiaris [3] = assay: Change in mean blood pressure (MBP) in dog 1 after oral administration after a period of 90 min; format: functional, Canis lupus familiaris
Canis familiaris [4] = assay: Change in mean blood pressure (MBP) in dog 3 after oral administration after a period of 45 min; format: functional, Canis lupus familiaris
Canis familiaris [5] = assay: Change in mean blood pressure (MBP) in dog 1 after oral administration after a period of 30 min; format: functional, Canis lupus familiaris
Canis familiaris [6] = assay: Change in mean blood pressure (MBP) in dog 2 after oral administration after a period of 15 min; format: functional, Canis lupus familiaris
Canis familiaris [7] = assay: Change in mean blood pressure (MBP) in dog 1 after oral administration after a period of 150 min; format: functional, Canis lupus familiaris
Canis familiaris [8] = assay: Change in mean blood pressure (MBP) in dog 3 after oral administration after a period of 300 min; format: functional, Canis lupus familiaris
Canis familiaris [9] = assay: Change in mean blood pressure (MBP) in dog 3 after oral administration after a period of 150 min; format: functional, Canis lupus familiaris
Canis familiaris [10] = assay: Change in mean blood pressure (MBP) in dog 2 after oral administration after a period of 240 min; format: functional, Canis lupus familiaris
Canis familiaris [11] = assay: Change in mean blood pressure (MBP) in dog 1 after oral administration after a period of 75 min; format: functional, Canis lupus familiaris
Canis familiaris [12] = assay: Change in mean blood pressure (MBP) in dog 2 after oral administration after a period of 45 min; format: functional, Canis lupus familiaris
Canis familiaris [13] = assay: Change in mean blood pressure (MBP) in dog 3 after oral administration after a period of 120 min; format: functional, Canis lupus familiaris
Canis familiaris [14] = assay: Change in mean blood pressure (MBP) in dog 2 after oral administration after a period of 180 min; format: functional, Canis lupus familiaris
Canis familiaris [15] = assay: Change in mean blood pressure (MBP) in dog 2 after oral administration after a period of 60 min; format: functional, Canis lupus familiaris
Canis familiaris [16] = assay: Change in mean blood pressure (MBP) in dog 2 after oral administration after a period of 30 min; format: functional, Canis lupus familiaris
Canis familiaris [17] = assay: Change in mean blood pressure (MBP) in dog 2 after oral administration after a period of 90 min; format: functional, Canis lupus familiaris
Canis familiaris [18] = assay: Change in mean blood pressure (MBP) in dog 3 after oral administration after a period of 30 min; format: functional, Canis lupus familiaris
Canis familiaris [19] = assay: Change in mean blood pressure (MBP) in dog 2 after oral administration after a period of 75 min; format: functional, Canis lupus familiaris
Canis familiaris [20] = assay: Change in mean blood pressure (MBP) in dog 2 after oral administration after a period of 150 min; format: functional, Canis lupus familiaris
Canis familiaris [21] = assay: Change in mean blood pressure (MBP) in dog 3 after oral administration after a period of 90 min; format: functional, Canis lupus familiaris
Canis familiaris [22] = assay: Change in mean blood pressure (MBP) in dog 1 after oral administration after a period of 120 min; format: functional, Canis lupus familiaris
Canis familiaris [23] = assay: Change in mean blood pressure (MBP) in dog 1 after oral administration after a period of 45 min; format: functional, Canis lupus familiaris
Canis familiaris [24] = assay: Change in mean blood pressure (MBP) in dog 2 after oral administration after a period of 120 min; format: functional, Canis lupus familiaris
Canis familiaris [25] = assay: Change in mean blood pressure (MBP) in dog 3 after oral administration after a period of 15 min; format: functional, Canis lupus familiaris
Canis familiaris [26] = assay: Change in mean blood pressure (MBP) in dog 1 after oral administration after a period of 180 min; format: functional, Canis lupus familiaris
Canis familiaris [27] = assay: Change in mean blood pressure (MBP) in dog 1 after oral administration after a period of 300 min; format: functional, Canis lupus familiaris
Canis familiaris [28] = assay: Change in mean blood pressure (MBP) in dog 2 after oral administration after a period of 300 min; format: functional, Canis lupus familiaris
Canis familiaris [29] = assay: Change in mean blood pressure (MBP) in dog 1 after oral administration after a period of 10 min; format: functional, Canis lupus familiaris
Canis familiaris [30] = assay: Change in mean blood pressure (MBP) in dog 3 after oral administration after a period of 240 min; format: functional, Canis lupus familiaris
Canis familiaris [31] = assay: Change in mean blood pressure (MBP) in dog 3 after oral administration after a period of 60 min; format: functional, Canis lupus familiaris
Canis familiaris [32] = assay: Change in mean blood pressure (MBP) in dog 3 after oral administration after a period of 75 min; format: functional, Canis lupus familiaris
Canis familiaris [33] = assay: Change in mean blood pressure (MBP) in dog 3 after oral administration after a period of 180 min; format: functional, Canis lupus familiaris
Canis familiaris [34] = assay: Change in mean blood pressure (MBP) in dog 1 after oral administration after a period of 60 min; format: functional, Canis lupus familiaris
Sus scrofa = species on record: Sus scrofa; assay: Concentration required for 50% inhibition of porcine kidney renin at 10e-7 nM concentration; format: functional
[35] = Partition coefficient (logD) (octanol/citric acid-phosphate buffer)
physchem [36] = conditions: S
physchem [37] = conditions: phosphate buffer, pH 7.4, S
Description: Solubility (phosphate buffer, pH 7.4)

[38] = buffer, pH 7.4
Description: Solubility (phosphate buffer, pH 7.4)

**Q.** Which MBP (Canis familiaris [1]) does the source give for CC(C)C[C@H](NC(=O)CC(O)C(CC1CCCCC1)NC(=O)[C@H](Cc1c[nH]cn1)NC(=O)[C@H](Cc1ccccc1)NC(=O)OC(C)(C)C)C(=O)NCc1cccc(CN)c1 (stereo not given in full) here?
**A.** -18 mmHg

**Q.** What about the MBP (Canis familiaris [2]) of the same compound?
**A.** 1 mmHg

**Q.** What about the MBP (Canis familiaris [3]) of the same compound?
**A.** 1 mmHg

**Q.** What about the MBP (Canis familiaris [4]) of the same compound?
**A.** -7 mmHg

**Q.** And the MBP (Canis familiaris [5])?
**A.** -2 mmHg

**Q.** And the MBP (Canis familiaris [6])?
**A.** -6 mmHg

**Q.** And the MBP (Canis familiaris [7])?
**A.** -1 mmHg

**Q.** What about the MBP (Canis familiaris [8]) of the same compound?
**A.** -3 mmHg

**Q.** And the MBP (Canis familiaris [9])?
**A.** -2 mmHg

**Q.** And the MBP (Canis familiaris [10])?
**A.** -1 mmHg

**Q.** What about the MBP (Canis familiaris [11]) of the same compound?
**A.** -7 mmHg

**Q.** And the MBP (Canis familiaris [12])?
**A.** -4 mmHg

**Q.** What about the MBP (Canis familiaris [13]) of the same compound?
**A.** 1 mmHg

**Q.** And the MBP (Canis familiaris [14])?
**A.** -2 mmHg

**Q.** And the MBP (Canis familiaris [15])?
**A.** 0 mmHg

**Q.** What about the MBP (Canis familiaris [16]) of the same compound?
**A.** -3 mmHg

**Q.** And the MBP (Canis familiaris [17])?
**A.** -5 mmHg

**Q.** What about the MBP (Canis familiaris [18]) of the same compound?
**A.** -6 mmHg

**Q.** What about the MBP (Canis familiaris [19]) of the same compound?
**A.** 1 mmHg

**Q.** What about the MBP (Canis familiaris [20]) of the same compound?
**A.** -3 mmHg

**Q.** What about the MBP (Canis familiaris [21]) of the same compound?
**A.** -2 mmHg

**Q.** And the MBP (Canis familiaris [22])?
**A.** -2 mmHg

**Q.** What about the MBP (Canis familiaris [23]) of the same compound?
**A.** -6 mmHg

**Q.** And the MBP (Canis familiaris [24])?
**A.** -4 mmHg

**Q.** And the MBP (Canis familiaris [25])?
**A.** 1 mmHg

**Q.** And the MBP (Canis familiaris [26])?
**A.** -13 mmHg

**Q.** What about the MBP (Canis familiaris [27]) of the same compound?
**A.** -10 mmHg

**Q.** What about the MBP (Canis familiaris [28]) of the same compound?
**A.** -1 mmHg

**Q.** What about the MBP (Canis familiaris [29]) of the same compound?
**A.** -12 mmHg

**Q.** What about the MBP (Canis familiaris [30]) of the same compound?
**A.** -3 mmHg

**Q.** And the MBP (Canis familiaris [31])?
**A.** -5 mmHg

**Q.** What about the MBP (Canis familiaris [32]) of the same compound?
**A.** -9 mmHg

**Q.** What about the MBP (Canis familiaris [33]) of the same compound?
**A.** -5 mmHg

**Q.** And the MBP (Canis familiaris [34])?
**A.** -4 mmHg

**Q.** With CC(C)CC(NC(=O)[C@H](Cc1c[nH]cn1)NC(=O)[C@H](Cc1ccccc1)NC(=O)OC(C)(C)C)C(O)CC(=O)N[C@@H](CC(C)C)C(=O)NCCS(=O)(=O)O (stereo not given in full) as the compound, how does the Inhibition (Sus scrofa) read?
**A.** 0%

**Q.** And the logD [35]?
**A.** 0.633

**Q.** And the solubility (physchem [36])?
**A.** > 11 mM

**Q.** And the solubility (physchem [37])?
**A.** > 11 mM

**Q.** What does the source list for CC(C)CC(NC(=O)[C@H](Cc1c[nH]cn1)NC(=O)[C@H](Cc1ccccc1)NC(=O)OC(C)(C)C)C(O)CC(=O)N[C@@H](CC(C)C)C(=O)NCCC(N)C(=O)O (stereo in doubt; 16)?
**A.** S [38]: 6100 µM; S: 2300 µM
